Structure (SMILES)	melting point [°C]
Cc1cc(=O)[nH]c(-c2cccc(O)c2)n1	213 to 215
CC(C)c1ccc(-c2noc(CCl)n2)cc1	50 to 52
Cc1ccc(C(=O)Cc2ccccc2)cc1C	93 to 95
CC(C(=O)O)c1cccc(F)c1 (configuration not stated)	59 to 61
O=C(O)c1ccc(-c2ccco2)[nH]c1=O	299 to 301
CC(Oc1ccc(C(=O)O)cn1)c1ccccc1 (configuration not stated)	113 to 115
COC(=O)CC(=O)c1ccncc1	70 to 72
O=C(Nc1ccccc1C(=O)O)c1cccc(Br)c1	189 to 191
N#Cc1cc(S(N)(=O)=O)ccc1Cl	219 to 221
Cc1cccc(NC(=O)CCCCl)c1	137 to 139
NC(CC1CCOC1)C(=O)O (configuration not stated)	269 to 271
O=Cc1ccccc1OCC(=O)N1CCCC1	112 to 114
O=C(O)Cn1cnc(-c2ccccc2)n1	179 to 181
Cc1cc2ncc(Br)cn2n1	137 to 139
NC(=O)c1nc(Cl)ccc1N	164 to 166
CC(=O)N1CCC(C(=O)O)C1 (configuration not stated)	145 to 147
Nc1ccc(CCN2CCOCC2)cc1	87 to 89
CNC(=O)Cc1ccccc1N	85 to 87
Fc1cc2ncc(Cl)nc2cc1F	91 to 93
COc1ccc(CC#N)cn1	49 to 51
O=C(O)C1CCCN(S(=O)(=O)c2cccs2)C1 (configuration not stated)	136 to 138
Cc1ccc(-n2c(S)nnc2-c2ccccn2)c(C)c1	234 to 236
Cc1cc(C=O)c(C)n1C1CCCCC1	75 to 77
COC(=O)c1cc(CBr)cc(C(=O)OC)c1	139 to 141

Structure (SMILES)	melting point [°C]
N#Cc1ccc(Cl)cc1NCc1ccccn1	100 to 102
O=C(O)CCNC(=O)C1CCCC1	128 to 130
OC1(Cc2ccccc2)CCCC1	56 to 58
O=C(O)C1CC(O)CN1C(=O)C12CC3CC(CC(C3)C1)C2 (configuration not stated)	206 to 208
O=C(O)c1cccc(NS(=O)(=O)c2cccs2)c1	197 to 199
NC(=O)CNS(=O)(=O)c1ccc(F)c(C(=O)O)c1	201 to 203
NC(=S)COc1ccccc1	111 to 115
CN1Cc2ccccc2NC1=O	200 to 203
O=C(O)c1ccc(NC(=O)c2ccccc2I)cc1	275 to 277
Cc1cc(N)c2cc(N)ccc2n1	212 to 214
CCCCOc1ccc(-c2nnc(N)o2)cc1	229 to 231
O=C(O)c1cccn1Cc1cccs1	134 to 136
NC(=NO)c1ccnc(N2CCCCC2)c1	179 to 181
COc1cc(C=O)ccc1OCc1cccs1	79 to 81
N#CCCCN1CCOCC1	67 to 69
O=C(O)c1cc(S(=O)(=O)N2CCOCC2)c(Cl)cc1Cl	183 to 185
NC(=O)C1CCCN1C(=O)NC(=O)CCl (configuration not stated)	126 to 128
Cc1cccc(NC(=O)[C@@H]2CCCN2)n1	62 to 64
COc1cc(C(=O)O)cc(Cl)c1OC	191 to 193
O=C(c1cc(Cl)nc2ccccc12)N1CCOCC1	175 to 177
CC1CNc2ccccc2NC1=O (configuration not stated)	203 to 205
O=S(=O)(Nc1nc2ccccc2nc1Cl)c1cc(F)ccc1F	250 to 252
COCCn1c(C)c(C)c2cc(C(=O)O)ccc21	219 to 221
NCc1ccc(N2CCN(c3ncccn3)CC2)c(F)c1	90 to 92

Structure (SMILES)	melting point [°C]
CC(=O)Nc1nnc(S)s1	267 to 269
Cc1c(C(=O)O)cc(Br)cc1S(=O)(=O)Cl	139 to 141
CC(Cc1ccc(Cl)cc1Cl)C(=O)O (configuration not stated)	49 to 51
O=C(O)c1cn(-c2ccccc2)nn1	138 to 140
O=C(O)Cc1ccc(S(=O)(=O)C(F)F)cc1	139 to 141
O=C(O)c1ccc(-n2ccnc2)nn1	238 to 240
CC(Cl)C(=O)Nc1ccc(Cl)cc1 (configuration not stated)	100 to 102
COc1ccc2cc(/C=C/C(=O)O)ccc2c1	183 to 195
CCOC(=O)c1oc2ccc(OC)cc2c1C	103 to 105
NC(=O)c1csc(Br)c1	142 to 144
O=C(O)CSCc1ccc(Cl)c(Cl)c1	67 to 69
CCc1ccc(/C=C/c2cc(C(=O)O)c3cc(Br)ccc3n2)cc1	286 to 288
Nc1ccc(CN2CCN(Cc3ccccc3)CC2)cc1	96 to 98
Nc1ccc(NC(=O)c2ccoc2)cc1C(F)(F)F	121 to 123
CN1C(=O)C(C#N)=C(N)C12CCCC2	290 to 292
Cc1ccccc1C(N)CC(=O)O (configuration not stated)	225 to 227
Nc1c(F)cc(Cl)cc1F	44 to 46
CCOc1oc(-c2ccccc2)nc1C(=O)O	147 to 149
O=C(O)C1CSCN1C(=O)c1ccc(Cl)cc1 (configuration not stated)	60 to 62
Cc1ccc(-c2csc(NC(=O)CCl)n2)cc1C	179 to 181
Cc1ccc(C(=O)Nc2cccc(C=O)c2)cc1	130 to 132
Cc1nc([N+](=O)[O-])cn1CC(=O)O	244 to 246
Cc1cc(CC#N)c(C)n1-c1ccc(Cl)cc1	74 to 76
CCN(CC)S(=O)(=O)c1ccc(N2CCN(C)CC2)c(N)c1	148 to 152

Structure (SMILES)	melting point [°C]
CC(c1cc(Cl)ccc1Cl)n1nccc1N (configuration not stated)	94 to 96
CNCc1nnc[nH]1	91 to 93
O=C(O)CS(=O)(=O)Cc1ccc(Br)cc1	156 to 158
COC(=O)c1sccc1N=[N+]=[N-]	69 to 71
CS(=O)(=O)N1CC(C(=O)O)Oc2ccccc21 (configuration not stated)	167 to 169
Nc1cccnc1Nc1ccc2c(c1)C(=O)NC2=O	269 to 271
O=Cc1c(Cl)nc2ccccn2c1=O	213 to 215
NC(=O)c1ccn(-c2ccccc2N)n1	161 to 163
Cc1ccc(C(=O)CBr)cc1[N+](=O)[O-]	45 to 47
CCCOc1ccc(CC(=O)O)cc1OCCC	59 to 61
COc1ccc(Br)cc1C(=O)CBr	92 to 94
CCNc1ccc(S(=O)(=O)N2CCOCC2)cc1N	188 to 190
COCCn1c(S)nc2ccccc21	127 to 129
Cc1ccc(Nc2cccc(C(=O)O)c2)nn1	279 to 281
O=C(O)c1cccc(-n2ccc(C(F)(F)F)n2)c1	159 to 161
Cc1sc2nc(C)n(N)c(=O)c2c1C	204 to 206
CC1(c2ccncc2)NC(=O)NC1=O (configuration not stated)	231 to 233
N#Cc1cc2ccccc2o1	33 to 35
Nc1ccc2c(c1)nc1n2CCCCC1	180 to 182
NNC(=O)Nc1ccc(C(=O)O)cc1	192 to 194
NC(=S)COc1ccccc1-c1ccccc1	177 to 179
O=C(O)C(c1ccccc1)N1CCc2ccccc21 (configuration not stated)	181 to 183
NC(=O)c1ccc(OCCC(=O)O)cc1	214 to 216
CC(C)(C)OC(=O)NC1(CN)CCCCCC1	77 to 79

Structure (SMILES)	melting point [°C]
CC(=O)Nc1cc(C(=O)O)ccc1C	277 to 279
Nc1ccc(F)cc1-c1ccc(Cl)cc1	54 to 56
O=Cc1cc(Br)c(OCc2ccccc2)c(Br)c1	78 to 80
CC(=O)c1ccc(S(=O)(=O)N(C)C)cc1	99 to 101
CS(=O)(=O)c1ccc(Cl)c(NC(=O)CCl)c1	148 to 149
Nc1ccc(C(=O)Nc2ccc3cn[nH]c3c2)cc1	272 to 274
Cc1cccc([N+](=O)[O-])c1S(=O)(=O)Cl	91 to 93
Cc1ccc(S(=O)(=O)NCCCC(=O)O)cc1C	111 to 113
Cc1cc(F)ccc1CO	44 to 46
O=C(O)c1cc(Cl)nc(N2CCCC2)c1	215 to 217
COC(=O)c1cc2ccccc2c(Cl)n1	110 to 112
CCc1cc2c(Cl)ncnc2s1	55 to 57
O=C1COCC(=O)N1	141 to 143
CN(C)C(N)=S	144 to 146
CN(C)S(=O)(=O)c1ccc(NC(=O)CCl)cc1	115 to 117
CN(c1ccccc1)S(=O)(=O)c1ccc(Cl)c(C(=O)O)c1	151 to 153
Cc1ccc(Oc2ccc3[nH]cccc-3c2=N)c(Br)c1	259 to 261
CC(Cl)C(=O)Nc1ccc(F)c([N+](=O)[O-])c1 (configuration not stated)	96 to 98
Cc1nc2ccccc2c(C)c1C(=O)O	186 to 188
O=C(O)CCNS(=O)(=O)c1cccnc1Cl	174 to 176
COc1ccc(CC(=O)NCc2ccc(C(=O)O)cc2)cc1	229 to 231
CCc1c(N)cnn1C	49 to 51
COc1ccc(C(=O)NN)cc1Br	137 to 139
O=C(O)Cc1coc2cc3c(cc12)CCC3	151 to 153

Structure (SMILES)	melting point [°C]
CCC(C)n1c(S)nnc1-c1ccccc1 (configuration not stated)	166 to 168
Cc1ccc(C2(C)CC(=O)NC2=O)cc1 (configuration not stated)	69 to 71
O=C(CC1CCCC1)c1ccc(Oc2ccccc2)cc1	30 to 32
N#CCOc1ccc(/C=C/C(=O)O)cc1	214 to 216
CC(O)(CN)c1ccc(F)cc1 (configuration not stated)	69 to 71
O=C(Nc1sccc1C(=O)O)c1ccco1	196 to 198
Cc1ccccc1-n1c(C)nnc1S	201 to 203
COC(=O)c1cc(F)ccc1CBr	41 to 43
O=C(O)c1cc2ccc(C(F)(F)F)cc2[nH]1	143 to 145
O=C(CC(F)(F)F)c1ccc(Cl)cc1	39 to 41
CC(C)(CC(=O)O)CC(=O)N1CCOCC1	80 to 82
CC1CC(C(F)(F)F)c2c(n(C)[nH]c2=O)N1 (configuration not stated)	202 to 204
N#Cc1ccc(N2CCC(C(=O)O)CC2)nc1	174 to 176
O=C(O)c1ccc(Oc2ccc(Cl)cc2)c(F)c1	128 to 130
Nc1ncc(Cc2ccccc2F)s1	97 to 99
Cc1ccccc1OCCC(=O)O	92 to 94
CC(C)(C)Cc1cc(N)n(-c2ccccc2)n1	95 to 97
CC(=O)Nc1ccc(NS(C)(=O)=O)c(C(=O)O)c1	265 to 267
Nc1nc(-c2ccc(N3CCCC3=O)cc2)cs1	283 to 285
CCc1ccccc1NC(=O)CN1CCNCC1	88 to 90
O=c1[nH]c(-c2cccs2)no1	183 to 185
O=C(O)c1ccc2c(c1)C(=O)N(C1CCS(=O)(=O)C1)C2=O (configuration not stated)	239 to 241
